The target of the test is human tryptase. Description: Inhibition of human tryptase (apparent dissociation constant, tos-Gly-Pro-Arg-pNA cleavage). The class given is biochemical. Particulars: pKiapp = -log Kiapp (mol/l), in the presence of substrate, heparin 0.1-50 μg/ml. The source says: The documented pathophysiological effects of mast cell tryptase are brought about directly by the enzymatic activity of the protease. Accordingly, they are reduced or blocked by inhibitors which inhibit the enzymatic activity of tryptase. A suitable measure of the affinity of a reversible inhibitor for the target protease is the equilibrium dissociation constant Ki of the enzyme/inhibitor complex. This value of Ki can be determined via the influence of the inhibitor on the tryptase-induced cleavage of a chromogenic peptide-p-nitroanilide substrate or of a fluorogenic peptide-aminomethylcoumarin substrate.
The dissociation constants for the tryptase/inhibitor complexes are determined under equilibrium conditions in accordance with the general proposals of Bieth (Bieth J. G., Pathophysiological Interpretation of kinetic constants of protease inhibitors, Bull. Europ. Physiopath. Resp. 16:183-195, 1980) and the methods of Sommerhoff et al. (Sommerhoff C. P. et al., A Kazal-type inhibitor of human mast cell tryptase: Isolation from the medical leech Hirudo medicinalis, characterization, and sequence analysis, Biol. Chem. Hoppe-Seyler 375: 685-694, 1994).
Human tryptase is prepared pure from lung tissue or is prepared by recombination; the specific activity of the protease which has been determined by titration is normally more than 85% of the theoretical value. […]

As to `COC(=O)C1CC(NC(=O)OCC#CCOC(=O)NC2CC(C(=O)OC)N(C(=O)CCc3cccc(CN)c3)C2)CN1C(=O)CCc1cccc(CN)c1.Cl.Cl` (stereo not shown) [Compound 1, 1,4-Bis-{N-[3-(3-aminomethylphenylproplonyl)-2-methoxycarbonylpyrrolidin-4-yl]aminocarbonyloxy}-2-butyne dihydrochloride], the pKiapp is 8.35.

Source of the values: patent US6962941B2, “Tryptase inhibitors” (Altana Pharma AG, priority 2001, dated 2005).
